Experimental data reported in PubChem BioAssay AID434951 (Broad Institute, 2010).
The source made the active and inactive calls.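 The calls were made as follows: active = a fitted half-maximal concentration EC50 for the rise in nuclear signal no higher than ten times the top dose tested; inconclusive = flat fit with activity between 30% and 70%, or unusable fit; inactive = EC50 beyond ten times the top dose.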

What follows are molecules tested against Hypoxia-inducible factor 1-alpha (Homo sapiens) (UniProt Q16665) (assay: activators of HIF1alpha nuclear accumulation, confirmation, imaging, fluorescence, U2OS GFP-HIF1alpha (AID 434951)). Conditions: U2OS GFP-HIF1alpha nuclear intensity, high-content imaging.
Sequence of Hypoxia-inducible factor 1-alpha (Homo sapiens) (Q16665 whole entry, looked up): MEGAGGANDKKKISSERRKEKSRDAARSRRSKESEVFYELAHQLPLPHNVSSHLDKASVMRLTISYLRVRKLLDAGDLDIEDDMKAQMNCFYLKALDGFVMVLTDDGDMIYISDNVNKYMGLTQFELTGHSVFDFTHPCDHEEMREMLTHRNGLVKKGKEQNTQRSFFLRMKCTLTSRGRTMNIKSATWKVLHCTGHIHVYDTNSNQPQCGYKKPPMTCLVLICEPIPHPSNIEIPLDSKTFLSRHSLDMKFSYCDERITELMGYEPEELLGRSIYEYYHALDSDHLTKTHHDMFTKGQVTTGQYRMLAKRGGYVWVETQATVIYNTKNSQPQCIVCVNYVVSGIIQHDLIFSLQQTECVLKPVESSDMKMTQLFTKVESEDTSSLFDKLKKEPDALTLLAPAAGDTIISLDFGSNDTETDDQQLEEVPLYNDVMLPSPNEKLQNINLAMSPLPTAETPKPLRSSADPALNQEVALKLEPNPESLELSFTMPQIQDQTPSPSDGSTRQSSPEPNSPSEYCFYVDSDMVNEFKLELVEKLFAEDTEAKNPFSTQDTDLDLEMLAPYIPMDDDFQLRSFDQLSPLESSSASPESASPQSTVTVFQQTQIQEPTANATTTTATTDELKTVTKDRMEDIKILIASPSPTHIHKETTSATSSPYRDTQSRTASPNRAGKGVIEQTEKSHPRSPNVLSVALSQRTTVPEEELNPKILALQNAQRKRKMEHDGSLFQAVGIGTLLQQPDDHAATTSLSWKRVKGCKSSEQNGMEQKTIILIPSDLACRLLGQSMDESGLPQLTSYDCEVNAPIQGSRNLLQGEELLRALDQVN
`O=C(c1ccc(F)cc1)N(Cc1cccs1)C1CCS(=O)(=O)C1` (configuration not stated) was tested, and the EC50 was > 35 µM (inactive).
`Cc1ccc(NC(=O)N2CCC(NC(=O)c3cccc(C)c3)CC2)cc1` was tested, and the EC50 was > 35 µM (inactive).
For `COc1ccc(NC(=O)CCC(=O)N(Cc2ccc(OC)c(OC)c2)c2nccs2)cc1`, the EC50 was > 35 µM (inactive).
With `COc1ccc(NC(=S)c2ccc(N(C)C)cc2)cc1` the EC50 was > 35 µM (inactive).
With `COc1ccccc1CCNS(=O)(=O)c1cc2c3c(c1)C(C)C(=O)N3CCC2` (configuration not stated) the EC50 was > 35 µM (inactive).
For `COC(=O)/C(=C(/F)SCC(C)=O)C(F)(F)F`, the EC50 was > 35 µM (inactive).
With `Cc1cc(/C=N/N2CCN(C)CC2)c(C)n1-c1ccc(Cl)cc1` the EC50 was > 35 µM (inactive).
For `CN(C(=O)COC(=O)c1ccc(F)c(S(=O)(=O)N2CCOCC2)c1)C1CCS(=O)(=O)C1` (configuration not stated), the EC50 was > 35 µM (inactive).
With `COc1ccc(NC(=O)CSc2nc3c(c(=O)[nH]2)CCC3)cc1OC` the EC50 was > 35 µM (inactive).
With `CCC(=O)NC(=S)Nc1ccc(NC(=O)c2cccc([N+](=O)[O-])c2C)cc1` the EC50 was > 35 µM (inactive).
With `COc1ccc(CC(=O)N2CCN(C(=O)Cc3ccc(OC)cc3)CC2)cc1` the EC50 was > 35 µM (inactive).
In the case of `CCc1ccc(NC(=O)COC(=O)c2cccs2)cc1`, the EC50 is reported as > 35 µM (inactive).
`COc1ccc(S(=O)(=O)N2CCOC2CNC(=O)C(=O)NCc2ccc3c(c2)OCO3)cc1OC` (configuration not stated) was tested, and the EC50 was > 35 µM (inactive).
With `Cn1c(SCC(=O)c2ccccc2)nnc1-c1ccco1` the EC50 was > 35 µM (inactive).
With `OCc1ccc(N=Nc2ccccc2)cc1` the EC50 was > 35 µM (inactive).
For `Cc1nc(C(=O)Nc2ccc(Cl)cc2Cl)nn1-c1cc(OC(C)C)c(Cl)cc1Cl`, the EC50 was > 35 µM (inactive).
Molecule `Cc1cc(NC(=O)CCN2C(=O)/C(=C\c3ccccc3)SC2=S)no1` has an EC50 of 34.4 µM.
`CC(C)c1cc(-c2cc(C(=O)NCc3ccccc3)on2)nc(NC2CCCC2)n1` was tested, and the EC50 was > 35 µM (inactive).
`O=C(NCC1CCCO1)c1cc(-c2ccc(F)cc2)no1` (configuration not stated) showed an EC50 of 32.6 µM.
`COCCn1c(=NC(=O)c2ccc(S(=O)(=O)N3CCCc4ccccc43)cc2)sc2cc(S(C)(=O)=O)ccc21` was tested, and the EC50 was > 35 µM (inactive).
`COc1ccc(C(=O)N/N=C(\c2ccccc2)c2ccccn2)cc1` was tested, and the EC50 was 11.5 µM.
Molecule `CC(C)[C@H](NC(=O)c1ccccc1Cl)C(=O)Nc1nc(-c2ccccn2)cs1` has an EC50 of 6.64 µM.
`CCCCC(=O)NC(c1ccccc1)c1ccc2cccnc2c1O` (configuration not stated) gave an EC50 of 17.4 µM.
Molecule `Oc1c(C(Nc2nc3ccccc3s2)c2ccco2)ccc2cccnc12` (configuration not stated) has an EC50 of 7.1 µM.
`O=c1[nH]c(C2CCN(S(=O)(=O)c3ccc(C(F)(F)F)cc3)CC2)nc2c1nnn2Cc1ccc(F)cc1` was tested, and the EC50 was > 35 µM (inactive).
`Cc1ccccc1CN1C(=O)CSc2ccc(C(=O)N3CCOCC3)cc21` was tested, and the EC50 was > 35 µM (inactive).
With `COC(=O)c1cn(C)c2ccc(S(=O)(=O)N3CCCCC3)cc2c1=O` the EC50 was > 35 µM (inactive).
For `S=C(Nc1ccc(Cl)cc1)Nc1ccc2cn[nH]c2c1`, the EC50 was > 35 µM (inactive).
For `COCCNC(=O)C(=O)NCC1OCCN1S(=O)(=O)c1cc(F)ccc1F` (configuration not stated), the EC50 was > 35 µM (inactive).
`COCc1c(C(=O)N/N=C(\C)c2ccc(Cl)s2)nnn1-c1nonc1N` was tested, and the EC50 was > 35 µM (inactive).
With `COc1ccc2nc(NC(=O)CSc3nccc(C)n3)sc2c1` the EC50 was > 35 µM (inactive).
`CCN(CC)CCNc1cc(C)nc2c1C(=O)C(=O)C=C2N1CCCCC1` gave an EC50 of 3.63 µM.
`CC(=O)NC(c1cccc([N+](=O)[O-])c1)c1ccc2cccnc2c1O` (configuration not stated) gave an EC50 of 10.7 µM.
In the case of `O=C(NC(c1ccccc1)c1ccccc1)C1CCCO1` (configuration not stated), the EC50 is reported as > 35 µM (inactive).
`Cc1nc2ccccc2nc1N/N=C/c1ccc(O)cc1O` was tested, and the EC50 was 36.5 µM.
For `CC(C)COc1ccc(C(=O)Nc2ccc([N+](=O)[O-])cc2)cc1`, the EC50 was > 35 µM (inactive).
For `OCCC#Cc1ccc(CN2CCN(Cc3ccccc3)C(CCO)C2)cc1` (configuration not stated), the EC50 was > 35 µM (inactive).
`Cc1ccc(C(=O)Nc2c3c(nn2C(C)(C)C)CS(=O)(=O)C3)cc1C` was tested, and the EC50 was > 35 µM (inactive).
For `COc1cc(C(=O)Oc2ccccc2/C=N/NC(=O)c2ccc(Cl)cc2)cc(OC)c1OC`, the EC50 was 35.8 µM.
`COc1cccc(/C=N/Nc2ncnc3scc(-c4ccccc4)c23)c1O` gave an EC50 of 1.27 µM.
`CC(=O)c1ccc(N2C(=NC(=O)COc3ccccc3)SC3CS(=O)(=O)CC32)cc1` (configuration not stated) was tested, and the EC50 was > 35 µM (inactive).
With `COc1cccc(OCc2cc(C(=O)N3CCN(c4ccccc4OC)CC3)no2)c1` the EC50 was > 35 µM (inactive).
`O=C(CN1CCCC1)N/N=C/c1c(O)ccc2ccccc12` was tested, and the EC50 was 8.15 µM.
With `O=c1c2ccccc2nc2c3ccccc3c(NCCN3CCOCC3)nn12` the EC50 was > 35 µM (inactive).
For `COc1ccc(CN2CCNC(=O)C2CC(=O)NC2CCCC2)c(OC)c1` (configuration not stated), the EC50 was > 35 µM (inactive).
With `Cc1cc(C)c(NS(=O)(=O)c2ccc3c(c2)NC(=O)CCS3)c(C)c1` the EC50 was > 35 µM (inactive).
For `Cc1cc(S(=O)(=O)ON2C(=O)c3ccccc3C2=O)ccc1F`, the EC50 was 6.21 µM.
For `Cc1cc(C)[n+](Cc2ccccc2)cc1C(N)=O`, the EC50 was > 35 µM (inactive).
Work on `CCOC(=O)c1c(-c2ccccc2)oc2cc(CN(C)C)c(O)c(CN(C)C)c12` yielded an EC50 of 5.53 µM.
With `Cc1ccc(/C=C(\C#N)c2nn(-c3ccccc3)c(N)c2C#N)cc1` the EC50 was > 35 µM (inactive).
For `COc1ccc(S(=O)(=O)N2CCC(c3cc(-c4cccc5ccccc45)n[nH]3)CC2)cc1`, the EC50 was > 35 µM (inactive).
`CC(=O)Nc1cccc(NC(=O)CS(=O)(=O)c2cn(CC(=O)N3CCOCC3)c3ccccc23)c1` was tested, and the EC50 was > 35 µM (inactive).
In the case of `CCn1c(SCC(=O)Nc2nncs2)nnc1-c1ccco1`, the EC50 is reported as > 35 µM (inactive).
`CCN(CC)c1ccc(NC(=O)CSc2nc3nc(C)cc(C)c3c(=O)[nH]2)cc1` was tested, and the EC50 was > 35 µM (inactive).
`CC(=O)c1cccc(N(C(=O)c2ccccn2)C(C(=O)NC2CCCCC2)c2ccccc2)c1` (configuration not stated) was tested, and the EC50 was > 35 µM (inactive).
`COc1cccc(C(=O)N/N=C(/c2ccccc2)c2ccccn2)c1` was tested, and the EC50 was 6.04 µM.
`CCn1ccnc1C(O)c1ccccc1OC` (configuration not stated) was tested, and the EC50 was > 35 µM (inactive).
In the case of `O=C(N/N=C/c1cc(Cl)cc(Cl)c1O)c1ccncc1`, the EC50 is reported as > 35 µM (inactive).
In the case of `CCNC(=O)COc1cccc(C(=O)NCc2ccccc2)c1`, the EC50 is reported as > 35 µM (inactive).
Molecule `Oc1cccc(C(Nc2nccs2)c2ccc3cccnc3c2O)c1` (configuration not stated) has an EC50 of 6.93 µM.
In the case of `CC(=O)Nc1nc(C)c(-c2csc(Nc3ccccn3)n2)s1`, the EC50 is reported as > 35 µM (inactive).
With `CCCc1nc2ccccc2c(=O)n1/N=C/c1ccccc1O` the EC50 was > 35 µM (inactive).
In the case of `CCOc1ccccc1N1CCN(C(=S)NC(=O)C23CC4CC(CC(C4)C2)C3)CC1`, the EC50 is reported as > 35 µM (inactive).
For `Cn1cccc1-c1cc(C(=O)N/N=C/c2cc(Br)ccc2O)[nH]n1`, the EC50 was 4.69 µM.
`Cc1ccc(C2=NOC(=O)/C2=C\c2ccccc2)cc1` was tested, and the EC50 was > 35 µM (inactive).
With `CC(=O)Nc1c([N+](=O)[O-])cc(C)c(Cl)c1[N+](=O)[O-]` the EC50 was > 35 µM (inactive).
Molecule `CCCC(=O)NC(c1ccc(C(C)C)cc1)c1ccc2cccnc2c1O` (configuration not stated) has an EC50 of 2.1 µM.
Work on `O=C(N/N=C\c1cc(Br)ccc1O)c1ccc(S(=O)(=O)N2CCCCC2)cc1` yielded an EC50 of 6.74 µM.
With `C/C(=N\O)C(=O)Nc1ccccc1` the EC50 was > 35 µM (inactive).
`COc1cc(C(=O)NCCc2nc3ccccc3n2C)cc(OC)c1OC` was tested, and the EC50 was > 35 µM (inactive).
`Cc1nc(NCCc2ccccc2)c(C#N)c(C)c1[N+](=O)[O-]` was tested, and the EC50 was > 35 µM (inactive).
With `COc1ccc2c(c1)-c1nc(NC(=O)c3ccco3)sc1CC2` the EC50 was > 35 µM (inactive).
In the case of `N#Cc1ccccc1S(=O)(=O)N1CCN(c2cnccn2)CC1`, the EC50 is reported as > 35 µM (inactive).
In the case of `CCC(=O)NC(c1ccccc1OC)c1ccc2cccnc2c1O` (configuration not stated), the EC50 is reported as 6.11 µM.
In the case of `COc1ccccc1C(c1nnnn1CC1CCCO1)N1CCC(C(N)=O)CC1` (configuration not stated), the EC50 is reported as > 35 µM (inactive).
`Nc1ccc(C(=O)N/N=C\c2cc(N=Nc3cccc4ccccc34)ccc2O)cc1` gave an EC50 of 35.8 µM.
In the case of `CCCCC(=O)NC(c1cccs1)c1cc(Cl)c2cccnc2c1O` (configuration not stated), the EC50 is reported as > 35 µM (inactive).
`COc1ccc(NC(=S)Nc2ccccn2)c(OC)c1` was tested, and the EC50 was > 35 µM (inactive).
`Cc1cc(SCC(=O)N/N=C/c2ccc(O)c(O)c2O)c(C)cc1Br` was tested, and the EC50 was > 35 µM (inactive).
In the case of `COc1ccc(CC(=O)NNC(=S)NCC2CC2)cc1OC`, the EC50 is reported as > 35 µM (inactive).
In the case of `O=C(CSc1nnc(-c2ccccc2Cl)o1)N1CCOCC1`, the EC50 is reported as > 35 µM (inactive).
In the case of `Cc1ccccc1-c1nc2ccccc2c(=O)n1/N=C/c1ccccc1[N+](=O)[O-]`, the EC50 is reported as > 35 µM (inactive).
For `Cc1c(Cl)c([N+](=O)[O-])nn1CC(=O)NC12CC3CC(CC(C3)C1)C2`, the EC50 was > 35 µM (inactive).
With `Cn1nnc2cc(C(=O)N3CCC(c4ccccc4)C3)ccc21` (configuration not stated) the EC50 was > 35 µM (inactive).
`C/C(=N\Nc1ccc2nncn2n1)c1ccccn1` showed an EC50 of 3.84 µM.
In the case of `CCOC(=O)c1c(NS(=O)(=O)c2ccccc2)n(CCCOC)c2nc3ccccc3nc12`, the EC50 is reported as > 35 µM (inactive).
Work on `Oc1ccc(Br)cc1/C=N/Nc1ccccn1` yielded an EC50 of 7.01 µM.
For `CC(NC(=O)C12CC3CC(CC(O)(C3)C1)C2)c1ccc(Cl)cc1Cl` (configuration not stated), the EC50 was > 35 µM (inactive).
For `COc1ccccc1N1CCN(Cc2ccc(O)c3ncccc23)CC1`, the EC50 was 5.41 µM.
With `COCCN=c1scc(-c2cc(OC)c(OC)c(OC)c2)n1/N=C/c1c(C)[nH]c2ccccc12` the EC50 was > 35 µM (inactive).
For `COc1ccc(C(=O)Nc2ccccc2C(=O)N/N=C/c2ccccn2)cc1OC`, the EC50 was 10.6 µM.
For `Cc1ccc2c(c1)C1NC(=S)NC(C)(O2)C1C(=O)Nc1ccc(Cl)cc1` (configuration not stated), the EC50 was > 35 µM (inactive).
In the case of `CS(=O)(=O)c1ccc2nc(NC(=O)C3CC(=O)N(c4ccc(F)cc4)C3)sc2c1` (configuration not stated), the EC50 is reported as > 35 µM (inactive).
In the case of `Cc1ccc2nc(-c3ccccc3NC(=O)CCC(=O)O)c(=O)[nH]c2c1`, the EC50 is reported as > 35 µM (inactive).
For `Cc1ccc2[nH]c3c(=O)n(CC(=O)NCCCN(C)Cc4ccccc4)ncc3c2c1`, the EC50 was > 35 µM (inactive).
In the case of `CN1CCN(Cc2cc(COCc3ccccc3)c3cccnc3c2O)CC1`, the EC50 is reported as 7.82 µM.
In the case of `COc1ccccc1N=Nc1ccc(O)c2ncccc12`, the EC50 is reported as 7.58 µM.
For `Cc1ccc(-c2cc(N)n(-c3ccc(F)cc3)n2)cc1`, the EC50 was > 35 µM (inactive).
In the case of `CC(OC(=O)COc1ccc(Nc2ccccc2)cc1)C(=O)N(C)c1ccccc1` (configuration not stated), the EC50 is reported as > 35 µM (inactive).
Molecule `COc1ccc(N/N=C(/N=Nc2nc(C)cc(=O)[nH]2)c2ccccc2)cc1` has an EC50 of 0.856 µM.
In the case of `COc1ccc(N(CC(=O)Nc2cc(OC)ccc2OC)S(=O)(=O)c2c(C)noc2C)cc1`, the EC50 is reported as > 35 µM (inactive).
In the case of `O=C(CSc1nc2ccccc2c(=O)[nH]1)Nc1ccc(Br)cc1`, the EC50 is reported as > 35 µM (inactive).
